The NIST ThermoML archive (doi:10.1016/j.jct.2012.03.003)

Assay: xn = mol fraction of the nth substance listed
Conditions: Liquid, Vibrating tube method

COc1cc2c(cc1O)CC1c3c(cc(O)c(OC)c3-2)CCN1C (stereo not given) [boldine] + CCO
Conditions | mass density [kg/m3]
313.01 K, 1000 kPa, x1 = 0.0196 | 817.64
313.01 K, 2000 kPa, x1 = 0.0196 | 818.47
313.01 K, 3000 kPa, x1 = 0.0196 | 819.29
313.01 K, 4000 kPa, x1 = 0.0196 | 820.13
313.01 K, 5000 kPa, x1 = 0.0196 | 820.98
313.01 K, 6000 kPa, x1 = 0.0196 | 821.82
313.01 K, 7000 kPa, x1 = 0.0196 | 822.67
313.01 K, 8000 kPa, x1 = 0.0196 | 823.53
313.01 K, 9000 kPa, x1 = 0.0196 | 824.37
313.01 K, 10000 kPa, x1 = 0.0196 | 825.22
313.01 K, 11000 kPa, x1 = 0.0196 | 826.07
313.01 K, 12000 kPa, x1 = 0.0196 | 826.9
313.01 K, 13000 kPa, x1 = 0.0196 | 827.74
313.01 K, 14000 kPa, x1 = 0.0196 | 828.55
313.01 K, 15000 kPa, x1 = 0.0196 | 829.36
313.01 K, 16000 kPa, x1 = 0.0196 | 830.17
313.01 K, 17000 kPa, x1 = 0.0196 | 830.96
313.01 K, 18000 kPa, x1 = 0.0196 | 831.74
313.01 K, 19000 kPa, x1 = 0.0196 | 832.5
313.01 K, 20000 kPa, x1 = 0.0196 | 833.23
313.09 K, 1000 kPa, x1 = 0.0012 | 775.75
313.09 K, 1000 kPa, x1 = 0.0267 | 829.8
313.09 K, 2000 kPa, x1 = 0.0012 | 776.61
313.09 K, 2000 kPa, x1 = 0.0267 | 830.62
313.09 K, 3000 kPa, x1 = 0.0012 | 777.49
313.09 K, 3000 kPa, x1 = 0.0267 | 831.43
313.09 K, 4000 kPa, x1 = 0.0012 | 778.37
313.09 K, 4000 kPa, x1 = 0.0267 | 832.27
313.09 K, 5000 kPa, x1 = 0.0012 | 779.27
313.09 K, 5000 kPa, x1 = 0.0267 | 833.1
313.09 K, 6000 kPa, x1 = 0.0012 | 780.17
313.09 K, 6000 kPa, x1 = 0.0267 | 833.94
313.09 K, 7000 kPa, x1 = 0.0012 | 781.08
313.09 K, 7000 kPa, x1 = 0.0267 | 834.77
313.09 K, 8000 kPa, x1 = 0.0012 | 781.99
313.09 K, 8000 kPa, x1 = 0.0267 | 835.61
313.09 K, 9000 kPa, x1 = 0.0012 | 782.89
313.09 K, 9000 kPa, x1 = 0.0267 | 836.46
313.09 K, 10000 kPa, x1 = 0.0012 | 783.79
313.09 K, 10000 kPa, x1 = 0.0267 | 837.26
313.09 K, 11000 kPa, x1 = 0.0012 | 784.7
313.09 K, 11000 kPa, x1 = 0.0267 | 838.09
313.09 K, 12000 kPa, x1 = 0.0012 | 785.59
313.09 K, 12000 kPa, x1 = 0.0267 | 838.91
313.09 K, 13000 kPa, x1 = 0.0012 | 786.48
313.09 K, 13000 kPa, x1 = 0.0267 | 839.73
313.09 K, 14000 kPa, x1 = 0.0012 | 787.35
313.09 K, 14000 kPa, x1 = 0.0267 | 840.53
313.09 K, 15000 kPa, x1 = 0.0012 | 788.21
313.09 K, 15000 kPa, x1 = 0.0267 | 841.33
313.09 K, 16000 kPa, x1 = 0.0012 | 789.07
313.09 K, 16000 kPa, x1 = 0.0267 | 842.12
313.09 K, 17000 kPa, x1 = 0.0012 | 789.89
313.09 K, 17000 kPa, x1 = 0.0267 | 842.89
313.09 K, 18000 kPa, x1 = 0.0012 | 790.71
313.09 K, 18000 kPa, x1 = 0.0267 | 843.66
313.09 K, 19000 kPa, x1 = 0.0012 | 791.52
313.09 K, 19000 kPa, x1 = 0.0267 | 844.41
313.09 K, 20000 kPa, x1 = 0.0012 | 792.31
313.09 K, 20000 kPa, x1 = 0.0267 | 845.14
313.1 K, 1000 kPa, x1 = 0.0074 | 788.76
313.1 K, 2000 kPa, x1 = 0.0074 | 789.61
313.1 K, 3000 kPa, x1 = 0.0074 | 790.46
313.1 K, 4000 kPa, x1 = 0.0074 | 791.34
313.1 K, 5000 kPa, x1 = 0.0074 | 792.21
313.1 K, 6000 kPa, x1 = 0.0074 | 793.1
313.1 K, 7000 kPa, x1 = 0.0074 | 793.98
313.1 K, 8000 kPa, x1 = 0.0074 | 794.88
313.1 K, 9000 kPa, x1 = 0.0074 | 795.77
313.1 K, 10000 kPa, x1 = 0.0074 | 796.66
313.1 K, 11000 kPa, x1 = 0.0074 | 797.53
313.1 K, 12000 kPa, x1 = 0.0074 | 798.41
313.1 K, 13000 kPa, x1 = 0.0074 | 799.28
313.1 K, 14000 kPa, x1 = 0.0074 | 800.14
313.1 K, 15000 kPa, x1 = 0.0074 | 800.98
313.1 K, 16000 kPa, x1 = 0.0074 | 801.81
313.1 K, 17000 kPa, x1 = 0.0074 | 802.63
313.1 K, 18000 kPa, x1 = 0.0074 | 803.44
313.1 K, 19000 kPa, x1 = 0.0074 | 804.23
313.1 K, 20000 kPa, x1 = 0.0074 | 805
313.13 K, 1000 kPa, x1 = 0.0136 | 801.85
313.13 K, 2000 kPa, x1 = 0.0136 | 802.69
313.13 K, 3000 kPa, x1 = 0.0136 | 803.55
313.13 K, 4000 kPa, x1 = 0.0136 | 804.42
313.13 K, 5000 kPa, x1 = 0.0136 | 805.28
313.13 K, 6000 kPa, x1 = 0.0136 | 806.15
313.13 K, 7000 kPa, x1 = 0.0136 | 807.04
313.13 K, 8000 kPa, x1 = 0.0136 | 807.92
313.13 K, 9000 kPa, x1 = 0.0136 | 808.79
313.13 K, 10000 kPa, x1 = 0.0136 | 809.66
313.13 K, 11000 kPa, x1 = 0.0136 | 810.53
313.13 K, 12000 kPa, x1 = 0.0136 | 811.4
313.13 K, 13000 kPa, x1 = 0.0136 | 812.25
313.13 K, 14000 kPa, x1 = 0.0136 | 813.1
313.13 K, 15000 kPa, x1 = 0.0136 | 813.94
313.13 K, 16000 kPa, x1 = 0.0136 | 814.77
313.13 K, 17000 kPa, x1 = 0.0136 | 815.58
313.13 K, 18000 kPa, x1 = 0.0136 | 816.37
313.13 K, 19000 kPa, x1 = 0.0136 | 817.16
313.13 K, 20000 kPa, x1 = 0.0136 | 817.92
323.03 K, 1000 kPa, x1 = 0.0012 | 766.88
323.03 K, 2000 kPa, x1 = 0.0012 | 767.82
323.03 K, 3000 kPa, x1 = 0.0012 | 768.76
323.03 K, 4000 kPa, x1 = 0.0012 | 769.71
323.03 K, 5000 kPa, x1 = 0.0012 | 770.66
323.03 K, 6000 kPa, x1 = 0.0012 | 771.62
323.03 K, 7000 kPa, x1 = 0.0012 | 772.58
323.03 K, 8000 kPa, x1 = 0.0012 | 773.53
323.03 K, 9000 kPa, x1 = 0.0012 | 774.49
323.03 K, 10000 kPa, x1 = 0.0012 | 775.44
323.03 K, 11000 kPa, x1 = 0.0012 | 776.38
323.03 K, 12000 kPa, x1 = 0.0012 | 777.32
323.03 K, 13000 kPa, x1 = 0.0012 | 778.24
323.03 K, 14000 kPa, x1 = 0.0012 | 779.15
323.03 K, 15000 kPa, x1 = 0.0012 | 780.06
323.03 K, 16000 kPa, x1 = 0.0012 | 780.94
323.03 K, 17000 kPa, x1 = 0.0012 | 781.82
323.03 K, 18000 kPa, x1 = 0.0012 | 782.68
323.03 K, 19000 kPa, x1 = 0.0012 | 783.53
323.03 K, 20000 kPa, x1 = 0.0012 | 784.35
323.04 K, 1000 kPa, x1 = 0.0074 | 779.9
323.04 K, 1000 kPa, x1 = 0.0196 | 808.75
323.04 K, 2000 kPa, x1 = 0.0074 | 780.82
323.04 K, 2000 kPa, x1 = 0.0196 | 809.64
323.04 K, 3000 kPa, x1 = 0.0074 | 781.75
323.04 K, 3000 kPa, x1 = 0.0196 | 810.53
323.04 K, 4000 kPa, x1 = 0.0074 | 782.68
323.04 K, 4000 kPa, x1 = 0.0196 | 811.42
323.04 K, 5000 kPa, x1 = 0.0074 | 783.61
323.04 K, 5000 kPa, x1 = 0.0196 | 812.32
323.04 K, 6000 kPa, x1 = 0.0074 | 784.55
323.04 K, 6000 kPa, x1 = 0.0196 | 813.21
323.04 K, 7000 kPa, x1 = 0.0074 | 785.48
323.04 K, 7000 kPa, x1 = 0.0196 | 814.12
323.04 K, 8000 kPa, x1 = 0.0074 | 786.42
323.04 K, 8000 kPa, x1 = 0.0196 | 815.02
323.04 K, 9000 kPa, x1 = 0.0074 | 787.36
323.04 K, 9000 kPa, x1 = 0.0196 | 815.91
323.04 K, 10000 kPa, x1 = 0.0074 | 788.29
323.04 K, 10000 kPa, x1 = 0.0196 | 816.8
323.04 K, 11000 kPa, x1 = 0.0074 | 789.22
323.04 K, 11000 kPa, x1 = 0.0196 | 817.69
323.04 K, 12000 kPa, x1 = 0.0074 | 790.13
323.04 K, 12000 kPa, x1 = 0.0196 | 818.56
323.04 K, 13000 kPa, x1 = 0.0074 | 791.03
323.04 K, 13000 kPa, x1 = 0.0196 | 819.44
323.04 K, 14000 kPa, x1 = 0.0074 | 791.94
323.04 K, 14000 kPa, x1 = 0.0196 | 820.29
323.04 K, 15000 kPa, x1 = 0.0074 | 792.82
323.04 K, 15000 kPa, x1 = 0.0196 | 821.15
